Laboratory results taken from US20260234144A1 (TAY THERAPEUTICS LIMITED, priority 2023, published 2026).

Tested on: R223X stop codon in the mutated luciferase gene, ADXC8 luciferase reporter cell line
Experiment: cells
Format: cell-based
Settings: 24 h, ADXC8 cells, 24 hours; for Emax: read-out: Fold Over Control, maximum fold response relative to 200 μM G418; for EC (100% of 200 uM G418 response): read-out: pC100%, negative logarithm of the concentration giving the same response as 200 μM G418

SMILES	Emax	EC (100% of 200 uM G418 response)
Cc1cc(C)c2c(N)cc(NC3CCN(C)CC3)nc2n1 [Example 291]	100 to 3000%	1 to 10 µM
Cc1cc(C)c2c(N)nc(N[C@H]3CCNC3)nc2n1 [Example 292]	100 to 3000%	1 to 10 µM
Cc1cc(C)c2c(N)nc(N[C@H]3CNC[C@@H]3O)nc2n1 [Example 293]		0.1 to 1 µM
CNc1nc(N[C@@H]2CCNC2)nc2nc(C)cc(C)c12 [Example 294]		0.1 to 1 µM
Cc1nc2nc(N[C@@H]3CCNC3)nc(N)c2c2c1CCC2 [Example 295]		0.1 to 1 µM
CNc1nc(NCCCN2CCOCC2)nc2nc3c(c(C)c12)CCC3 [Example 296]		0.1 to 1 µM
Cc1cc(C)c2c(N)nc(N[C@@H]3CNC[C@H]3F)nc2n1 [Example 297]	100 to 3000%	10 to 100 µM
COc1ccc(CNc2ccnc3nc(NC4CCN(C)CC4)nc(N)c23)cc1 [Example 298]	0 to 100%	> 100 µM
CN1CCC(Nc2nc(N)c3ccc(CO)nc3n2)CC1 [Example 299]	0 to 100%	> 100 µM
Cc1cc(C)c2c(N)cc(NCCCN3CCOCC3)nc2n1 [Example 300]	100 to 3000%	1 to 10 µM
Cc1cc(-c2ccccc2)nc2nc(N[C@@H]3CCNC3)nc(N)c12 [Example 301]		1 to 10 µM
Cc1cc(C)c2c(N)nc(N[C@@H]3CNC[C@H]3O)nc2n1 [Example 302]	100 to 3000%	1 to 10 µM
Cc1nc2nc(NC3CCN(Cc4ccccc4)CC3)nc(N)c2c2c1CCC2 [Example 306]	100 to 3000%	0.1 to 1 µM
CN1CCC(Nc2nc(N)c3c(N(C)C)ccnc3n2)CC1 [Example 307]	0 to 100%	> 100 µM
CC(O)c1ccnc2nc(NC3CCN(C)CC3)nc(N)c12 (stereo not drawn) [Example 308]	0 to 100%	> 100 µM
CC(=O)c1ccnc2nc(NC3CCN(C)CC3)nc(N)c12 [Example 309]	0 to 100%	> 100 µM
CN1CCC(Nc2nc(N)c3ccc(C4CCCC4)nc3n2)CC1 [Example 310]		1 to 10 µM
Cc1cc(C)c2c(N)nc(N[C@@H]3CCN(CC(F)(F)F)C3)nc2n1 [Example 311]	0 to 100%	> 31.6 µM
Cc1cc(C)c2c(N)nc(N[C@H]3CCCCNC3)nc2n1 [Example 312]	100 to 3000%	10 to 100 µM
Cc1cc(C)c2c(N)nc(N[C@@H]3CCCCNC3)nc2n1 [Example 313]	100 to 3000%	1 to 10 µM
Cc1cc(C)c2c(NCC(N)=O)nc(NC3CCN(C)CC3)nc2n1 [Example 314]	0 to 100%	> 31.6 µM
Cc1cc(C)c2c(NCCN)nc(NC3CCN(C)CC3)nc2n1 [Example 315]	0 to 100%	> 31.6 µM
Cc1cc(C)c2c(NCCn3ccnc3)nc(NC3CCN(C)CC3)nc2n1 [Example 316]	0 to 100%	> 31.6 µM
Cc1cc(C)c2c(NCc3ccccn3)nc(NC3CCN(C)CC3)nc2n1 [Example 317]	100 to 3000%	10 to 100 µM

SMILES	Emax	EC (100% of 200 uM G418 response)
Cc1cc(C)c2c(NCc3cccnc3)nc(NC3CCN(C)CC3)nc2n1 [Example 318]	0 to 100%	> 31.6 µM
Cc1cc(C)c2c(NCc3ccncc3)nc(NC3CCN(C)CC3)nc2n1 [Example 319]	0 to 100%	> 31.6 µM
Cc1cc(C)c2c(NC3CC3)nc(NC3CCN(C)CC3)nc2n1 [Example 320]	100 to 3000%	1 to 10 µM
Cc1cc(C)c2c(NC3CCC3)nc(NC3CCN(C)CC3)nc2n1 [Example 321]	0 to 100%	> 31.6 µM
Cc1cc(C)c2c(NC(C)C)nc(N[C@@H]3CCNC3)nc2n1 [Example 323]	100 to 3000%	1 to 10 µM
Cc1cc(C)c2c(NC3CCCC3)nc(N[C@@H]3CCNC3)nc2n1 [Example 324]	0 to 100%	> 31.6 µM
CNc1nc(N[C@H]2CNC[C@@H]2O)nc2nc(C)cc(C)c12 [Example 325]		1 to 10 µM
CNc1nc(N[C@H]2CNC[C@H]2O)nc2nc(C)cc(C)c12 [Example 326]	0 to 100%	> 31.6 µM
CNc1nc(N[C@@H]2CCN(C)C2)nc2nc(C)cc(C)c12 [Example 327]	100 to 3000%	1 to 10 µM
[2H]C([2H])([2H])Nc1nc(NC2CCN(C)CC2)nc2nc(C)cc(C)c12 [Example 328]	100 to 3000%	1 to 10 µM
Cc1cc(C)c2c(NCCC(N)=O)nc(NC3CCN(C)CC3)nc2n1 [Example 329]	0 to 100%	> 31.6 µM
CNCCNc1nc(NC2CCN(C)CC2)nc2nc(C)cc(C)c12 [Example 330]	0 to 100%	> 31.6 µM
CNc1nc(N[C@@H]2CCNC2)nc2nc(C)c(Br)c(C)c12 [Example 331]	100 to 3000%	0.1 to 1 µM
Cc1cc(C)c2c(NC3CC3)nc(N[C@@H]3CCNC3)nc2n1 [Example 332]	100 to 3000%	1 to 10 µM
Cc1cc(C)c2c(NC3CCC3)nc(N[C@@H]3CCNC3)nc2n1 [Example 333]	0 to 100%	> 31.6 µM
CNc1nc(N[C@H]2CNC[C@@H]2F)nc2nc(C)cc(C)c12 [Example 334]		1 to 10 µM
CNc1nc(N[C@H]2CNC[C@H]2F)nc2nc(C)cc(C)c12 [Example 335]	100 to 3000%	1 to 10 µM
CNc1nc(N[C@@H]2CCN(C)C2)nc2nc3c(c(C)c12)CCC3 [Example 336]	100 to 3000%	0.1 to 1 µM
CNc1nc(N[C@@H]2CCN(C)C2)nc2nc(C)c3c(c12)CCC3 [Example 337]		0.1 to 1 µM
CNc1nc(N[C@H]2CN(C)C[C@@H]2F)nc2nc(C)cc(C)c12 [Example 339]	100 to 3000%	1 to 10 µM
CNc1nc(N[C@H]2CN(C)C[C@H]2F)nc2nc(C)cc(C)c12 [Example 340]	100 to 3000%	1 to 10 µM
CNc1nc(N[C@H]2CNC[C@@H]2O)nc2nc3c(c(C)c12)CCC3 [Example 341]	100 to 3000%	0.01 to 0.1 µM
CNc1nc(N[C@H]2CNC[C@@H]2F)nc2nc3c(c(C)c12)CCC3 [Example 342]	100 to 3000%	0.1 to 1 µM
CNc1nc(N[C@H]2CNC[C@@H]2O)nc2nc(C)c3c(c12)CCC3 [Example 344]		0.01 to 0.1 µM

SMILES	Emax	EC (100% of 200 uM G418 response)
CNc1nc(N[C@H]2CNC[C@H]2O)nc2nc(C)c3c(c12)CCC3 [Example 345]	100 to 3000%	10 to 100 µM
CNc1nc(N[C@H]2CNC[C@@H]2F)nc2nc(C)c3c(c12)CCC3 [Example 346]	100 to 3000%	0.1 to 1 µM
CNc1nc(N[C@H]2CNC[C@H]2F)nc2nc(C)c3c(c12)CCC3 [Example 347]		0.1 to 1 µM
Cc1cc(C)c2c(N)nc(N[C@@H]3CN[C@H](C)C3)nc2n1 [Example 348]	100 to 3000%	10 to 100 µM
Cc1cc(C)c2c(N)nc(N[C@@H]3CN[C@@H](C)C3)nc2n1 [Example 349]	100 to 3000%	10 to 100 µM
Cc1cc(C)c2c(N)nc(N[C@H]3CN[C@@H](C)C3)nc2n1 [Example 350]	100 to 3000%	1 to 10 µM
Cc1cc(C)c2c(N)nc(N[C@H]3CNC[C@H]3C)nc2n1 [Example 351]		1 to 10 µM
Cc1cc(C)c2c(N)nc(N[C@H]3CCCNC3)nc2n1 [Example 352]	100 to 3000%	10 to 100 µM
CNC(=O)CCNc1nc(NC2CCN(C)CC2)nc2nc(C)cc(C)c12 [Example 353]	0 to 100%	> 31.6 µM
Cc1cc(C)c2c(NCCC(=O)N(C)C)nc(NC3CCN(C)CC3)nc2n1 [Example 354]	0 to 100%	> 31.6 µM
CC(=O)NCCNc1nc(NC2CCN(C)CC2)nc2nc(C)cc(C)c12 [Example 355]	0 to 100%	> 31.6 µM
Cc1cc(C)c2c(NCCS(C)(=O)=O)nc(NC3CCN(C)CC3)nc2n1 [Example 356]	0 to 100%	> 31.6 µM
Cc1cc(C)c2c(NCCN3CCOCC3)nc(NC3CCN(C)CC3)nc2n1 [Example 357]	100 to 3000%	1 to 10 µM
CNc1nc(N[C@@H]2CCNC2)nc2nc(C)c(Cl)c(C)c12 [Example 358]	100 to 3000%	0.1 to 1 µM
CNc1nc(N[C@H]2CN(C)C[C@H]2O)nc2nc(C)cc(C)c12 [Example 359]	100 to 3000%	10 to 100 µM
CNc1nc(N[C@H]2CNC[C@H]2O)nc2nc3c(c(C)c12)CCC3 [Example 360]	100 to 3000%	10 to 100 µM
CNc1nc(N[C@H]2CN(C)C[C@H]2O)nc2nc3c(c(C)c12)CCC3 [Example 361]	100 to 3000%	1 to 10 µM
CNc1nc(N[C@H]2CN(C)C[C@H]2O)nc2nc(C)c3c(c12)CCC3 [Example 364]	100 to 3000%	1 to 10 µM
CNc1nc(N[C@H]2CN(C)C[C@@H]2F)nc2nc(C)c3c(c12)CCC3 [Example 365]	100 to 3000%	0.1 to 1 µM
CNc1nc(N[C@H]2CN(C)C[C@H]2F)nc2nc(C)c3c(c12)CCC3 [Example 366]	100 to 3000%	0.1 to 1 µM
CNc1nc(N[C@@H]2C[C@H](C)N(C)C2)nc2nc(C)cc(C)c12 [Example 367]		1 to 10 µM
CNc1nc(N[C@@H]2C[C@@H]3CC[C@H]2N3C)nc2nc(C)cc(C)c12 [Example 368]	100 to 3000%	1 to 10 µM
CNc1nc(N[C@H]2CN(C)C[C@H]2OC)nc2nc(C)cc(C)c12 [Example 369]	100 to 3000%	1 to 10 µM
